Test results as given in US20210220331A1, “INHIBITORS OF IRES-MEDIATED PROTEIN SYNTHESIS” (The Regents of the University of California, priority 2016, published 2021).

How the values were obtained:
human c-myc IRES [1] = assay: Dicistronic IRES mRNA reporter assay (firefly luciferase), c-myc IRES; assay type: cell-based; conditions: for c-myc (decrease): fold decrease in PP242-induced c-MYC IRES activity: LN229, relative to values obtained with parent compound C11
Protocol: Western blot and quantitative RT-PCR analyses were performed as previously described (19). For Western blotting, cells or tissues were lysed in RIPA (lysis) buffer containing protease inhibitor cocktail and phosSTOP phosphatase inhibitor cocktail (Roche) and extracts resolved by SDSPAGE. Proteins were transferred to PVDF membranes and incubated with the indicated antibodies. For IRES reporter assays, the indicated mRNA reporters were cotransfected into cells with pSVβ-galactosidase to normalize for transfection efficiency as described previously (16). Cells were harvested 18 h following transfection and Renilla, firefly and β-galactosidase activities determined using the Dual-Glo Luciferase and β-galactosidase assay systems (Promega).
(B) Schematic diagrams of the dicistronic constructs used in this study. Constructs used are pRF, pRCD1F, which contains the human cyclin D1 IRES, pRmycF, containing the human c-myc IRES, pRp27F, containing the human p27Kip1 IRES and pRECMVF, containing the IRES from encephalomyocarditis virus. (C) Relative Renilla and firefly luciferase activities obtained from LN229 GBM cells transfected with the indicated constructs in the absence or presence of the inhibitor C11. The mean and +SD are shown for three independent experiments. […] (D) RNA-pull down assays utilizing biotinylated cyclin D1 or c-MYC IRES RNAs. Cytoplasmic extracts of LN229 cells treated with C11 (50 nM) as indicated were incubated with biotinylated cyclin D1 or c-MYC IRES RNAs and precipitated with streptavidin-Sepharose beads. Input and bound fractions were analyzed by immunoblotting using hnRNP A1 antibodies. […] RT-PCR measurements were performed in quadruplicate and the mean and +S.D. are shown. […] (F) Top panel, LN229 cells were treated with C11 as indicated and RT-PCR splicing analysis for Max exon 5 performed as described in the Experimental Methods section. Middle panel, LN229 cells treated with C11 (50 nM) as indicated, were lysed and immunoprecipitated using either eIF-4E or control IgG antibodies. Bound CCND1 or c-MYC RNAs were detected via RT-PCR. The mean and +S.D. are shown for three independent experiments. Bottom panel, cyclin D1 and c-MYC protein levels from the indicated GBM cell lines in the absence or presence of C11 at 24 h following treatment. C11 specifically blocks c-Myc IRES-mediated translation initiation by disrupting the ITAF hnRNP A1-IRES interaction.
Several dicistronic IRES mRNA reporter constructs were utilized, shown in FIG. 1B, in which the indicated IRES sequences were inserted within the intercistronic region. LN229 cells transiently transfected with these constructs were assayed for Renilla and firefly luciferase activities, which are readouts of cap-dependent and IRES-mediated translation initiation, respectively (16). […]

LN229 cells [2] = assay: Combination analysis with PP242 (XTT, combination index) in LN229; assay type: cell-based; conditions: combination of PP242 and analog, CI=1.0 dose additive, CI<0.5 synergy, CI<0.3 strong synergy
Source text: Fold decrease in either PP242-induced cyclin D1 or c-MYC IRES activity in LN229 relative to values obtained with the parent compound C11 are shown for each analog. […] CI=1.0 (dose additive), CI<0.5 (synergy), CI<0.3 (strong synergy).
The structure-activity relationships (SAR) for C11 and related compounds were investigated by synthesizing and testing the analogs listed in Table 1. […] The degree of apoptotic cell death following co-treatment with analog and PP242 was also monitored.

LN229 cells [3] = assay: Apoptosis via Annexin V staining in LN229; assay type: cell-based; conditions: LN229 cotreated with PP242 (50 nM) and analog (100 nM), 24 h
[4] = biological target: T1, UP1 fragment of hnRNP A1 / cyclin D1 or c-MYC IRES RNAs (Homo sapiens, UniProt P09651); assay: Filter binding assay of GST-tagged hnRNP A1 mutants with IRES RNAs; conditions: for association of UP1 fragment (a.a. 1-196) with cyclin D1 or c-MYC IRESs: GST-tagged protein
T1 construct: The UP1 fragment (a.a. 1-196) containing RRM1 and RRM2; made in house; host or cells: HEK293 cells
T1 sequence (P09651 1-196): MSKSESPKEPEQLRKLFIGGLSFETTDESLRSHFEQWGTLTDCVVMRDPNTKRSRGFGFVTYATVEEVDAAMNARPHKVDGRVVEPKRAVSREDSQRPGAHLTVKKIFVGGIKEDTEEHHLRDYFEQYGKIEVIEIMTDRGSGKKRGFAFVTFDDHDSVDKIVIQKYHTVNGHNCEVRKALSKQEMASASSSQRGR
Protocol: Filter binding assays were performed as previously described (18,23). GSTtagged hnRNP A1 or hnRNP A1 deletion mutants were added to in vitro transcribed 32Plabeled RNAs corresponding to either the cyclin D1 or c-MYC IRESs in separate reactions in a volume of 10 μl in buffer containing 5 mM HEPES (pH 7.6), 30 mM KCl, 2 mM MgCl2, 200 mM DTT, 4% glycerol and 10 ng yeast tRNA for 10 min at room temperature. 8 μl of each binding reaction was applied to nitrocellulose membranes on a slot blot apparatus (Minifold II, Schleicher & Schuell). Membranes were washed and dried, and signals quantified using a phosphorimager.
To begin to investigate the mechanism of action of C11 and IRES-J007, it was initially determined whether the UP1 fragment of hnRNP A1 was sufficient to recapitulate C11 or IRESJ007-mediated inhibition of IRES binding to this ITAF. The relative association between the mutant proteins and either the cyclin D1 or c-MYC IRESs was determined by filter binding assays in the absence or presence of the inhibitors (FIG. 4B). […] Additionally, a mutant encompassing residues 103-372, containing RRM2 bound both IRES sequences and binding was reduced in the presence of either of the inhibitors. […] The presence of RRM2 is necessary and appears to cooperate with RRM1 to mediate IRES binding that is sensitive to C11 or IRES-J007. Finally, UP1 is capable of IRES binding that is blocked by either C11 or the analog IRES-J007.
Mutant 1-196 constitutes the Up1 fragment of full-length human hnRNP A1. In the Δ130-158 mutant, the sequences encompassing RRM2 have been removed. (B) Binding of either cyclin D1 (top panel) or c-MYC (bottom panel) IRES RNAs to GST-tagged hnRNP A1 mutants in the absence or presence of C11 or IRES-J007 as assayed by filter binding. The mean and +SD are shown for three independent experiments.

human cyclin D1 IRES = assay: Dicistronic IRES mRNA reporter assay (firefly luciferase), cyclin D1 IRES; assay type: cell-based; conditions: 293T cells, 50 nM, 24 h
human c-myc IRES [5] = assay: Dicistronic IRES mRNA reporter assay (firefly luciferase), c-myc IRES; assay type: cell-based; conditions: 293T cells, 50 nM, 24 h

COc1ccc(CN2C(=O)C(Cl)=C(Cl)C2=O)c(OC)c1 [Compound C11, reference compound]
c-myc (decrease): fold decrease in PP242-induced c-MYC IRES activity (human c-myc IRES [1]): 1.0 fold | mTOR inhibitor-induced c-MYC IRES activity (human c-myc IRES [1]; LN229 cells, cotreatment with rapamycin or PP242): significantly inhibited | c-MYC IRES activity (human c-myc IRES [1]; LN229 cells, inhibitor alone): significantly inhibited | CI ED50, 1:100 (combination index) (LN229 cells [2]): 0.50 | % Apoptosis (100 nM) (LN229 cells [3]): 25.9% | association of UP1 fragment (a.a. 1-196) with cyclin D1 or c-MYC IRESs [4]: blocked association | basal cyclin D1 IRES activity (human cyclin D1 IRES): reduced IRES activity | basal c-MYC IRES activity (human c-myc IRES [5]): reduced IRES activity

COc1ccc(CN2C(=O)c3ccccc3C2=O)c(OC)c1 [IRES-J007, 2-((2,4-Dimethoxyphenyl)methyl)isoindoline-1,3-dione]
c-myc (decrease): fold decrease in PP242-induced c-MYC IRES activity (human c-myc IRES [1]): 6.51 ± 0.07 fold | CI ED50, 1:100 (combination index) (LN229 cells [2]): 0.42 | % Apoptosis (100 nM) (LN229 cells [3]): 62.4% | ability to block UP1/IRES RNA interactions compared to C11 [4]: modest, yet significant increase | association of UP1 fragment (a.a. 1-196) with cyclin D1 or c-MYC IRESs [4]: blocked association | basal cyclin D1 IRES activity (human cyclin D1 IRES): reduced IRES activity | basal c-MYC IRES activity (human c-myc IRES [5]): reduced IRES activity
